Experimental data taken from US11312727B1, “Macrocyclic flu endonuclease inhibitors” (Janssen BioPharma, Inc., priority 2018, dated 2022).

Assays:
[1] = test system: Influenza strain A549 A/WSN/33 (H1N1); experiment: microbe, parasite or virus in culture; type: cell-based; details: Influenza A virus, A549, 20 h, A549 cells, influenza A/WSN/33 (H1N1), 20 hours incubation; read-out: A549_A(H1N1) EC50
in vitro = details: human, CC50, uninfected A549 cells, CellTiter-Glo

| Structure (SMILES) | EC50 [1] [nM] | CC50 (in vitro) [nM] |
| --- | --- | --- |
| O=C1c2c(O)c(=O)ccn2N2CN1CC/C=C\COc1ccc(F)c3c1[C@@H]2c1ccccc1SC3 (single isomer, unassigned) [Compound 93A, (1*R,13Z)-20-fluoro-7-hydroxy-16-oxa-23-thia-2,3,10-triazahexacyclo[15.12.1.12,10.03,8.021,30.024,29]hentriaconta-4,7,13,17,19,21(30),24(29),25,27-nonaene-6] | > 500 | > 1000 |
| O=C1c2c(O)c(=O)ccn2N2CN1CC/C=C\COc1ccc(F)c3c1[C@H]2c1ccccc1SC3 (single isomer, unassigned) [Compound 93B, (1*SR,13Z)-20-fluoro-7-hydroxy-16-oxa-23-thia-2,3,10-triazahexacyclo[15.12.1.12,10.03,8.021,30.024,29]hentriaconta-4,7,13,17,19,21(30),24(29),25,27-nonaene-6] | 2.2 | > 200 |
| O=C1c2c(O)c(=O)ccn2N2CN1C/C=C\COc1cc(C(F)F)ccc1[C@@H]2c1ccccc1 (single isomer, unassigned) [Compound 94A, (18*S,Z)-3-(difluoromethyl)-12-hydroxy-18-phenyl-6,9-dihydro-18H-10,17-methanobenzo[b]pyrido[1,2-f][1]oxa[5,6,9]triazacyclotridecine-11,13-dione] | 25.7 | > 1000 |
| O=C1c2c(O)c(=O)ccn2N2CN1C/C=C\COc1cc(C(F)F)ccc1[C@H]2c1ccccc1 (single isomer, unassigned) [Compound 94B, (18*R,Z)-3-(difluoromethyl)-12-hydroxy-18-phenyl-6,9-dihydro-18H-10,17-methanobenzo[b]pyrido[1,2-f][1]oxa[5,6,9]triazacyclotridecine-11,13-dione] | > 500 | > 1000 |
| O=C1c2c(O)c(=O)ccn2N2CN1C1(/C=C/COc3c(F)cccc3[C@@H]2c2ccccc2)CC1 (single isomer, unassigned) [Compound 95A, (18′*S,E)-4′-fluoro-12′-hydroxy-18′-phenyl-6′H,18′H-spiro[cyclopropane-1,9′-[10,17]methanobenzo[b]pyrido[1,2-f][1]oxa[5,6,9]triazacyclotridecine]-11′,13′-dione] | > 500 | > 1000 |
| O=C1c2c(O)c(=O)ccn2N2CN1C1(/C=C/COc3c(F)cccc3[C@H]2c2ccccc2)CC1 (single isomer, unassigned) [Compound 95B, (18′*R,E)-4′-fluoro-12′-hydroxy-18′-phenyl-6′H,18′H-spiro[cyclopropane-1,9′-[10,17]methanobenzo[b]pyrido[1,2-f][1]oxa[5,6,9]triazacyclotridecine]-11′,13′-dione] | 1.7 | > 1000 |
| O=C1c2c(O)c(=O)ccn2N2CN1C1(/C=C/COc3c(Cl)cccc3[C@H]2c2ccccc2)CC1 (single isomer, unassigned) [Compound 96A, (18′*R,E)-4′-chloro-12′-hydroxy-18′-phenyl-6′H,18′H-spiro[cyclopropane-1,9′-[10,17]methanobenzo[b]pyrido[1,2-f][1]oxa[5,6,9]triazacyclotridecine]-11′,13′-dione] | 1.9 | > 200 |
| O=C1c2c(O)c(=O)ccn2N2CN1C1(/C=C/COc3c(Cl)cccc3[C@@H]2c2ccccc2)CC1 (single isomer, unassigned) [Compound 96B] | > 500 | > 1000 |
| CC[C@@H]1/C=C/COc2cc(Cl)ccc2[C@@H](c2ccccc2)N2CN1C(=O)c1c(O)c(=O)ccn12 (single isomer, unassigned) [Compound 97AA] | 5.8 | > 1000 |
| CC[C@H]1/C=C/COc2cc(Cl)ccc2[C@@H](c2ccccc2)N2CN1C(=O)c1c(O)c(=O)ccn12 (single isomer, unassigned) [Compound 97AB] | 5.6 | > 1000 |
| CC[C@@H]1/C=C/COc2cc(Cl)ccc2[C@H](c2ccccc2)N2CN1C(=O)c1c(O)c(=O)ccn12 (single isomer, unassigned) [Compound 97BA] | > 500 | > 1000 |
| CC[C@H]1/C=C/COc2cc(Cl)ccc2[C@H](c2ccccc2)N2CN1C(=O)c1c(O)c(=O)ccn12 (single isomer, unassigned) [Compound 97BB] | > 500 | > 1000 |
| CC[C@H]1/C=C/COc2c(Cl)cccc2[C@H](c2ccccc2)N2CN1C(=O)c1c(O)c(=O)ccn12 (single isomer, unassigned) [Compound 98AA, (9*S,18*S,E)-4-chloro-9-ethyl-12-hydroxy-18-phenyl-6,9-dihydro-18H-10,17-methanobenzo[b]pyrido[1,2-f][1]oxa[5,6,9]triazacyclotridecine-11,13-dione] | > 500 | > 1000 |
| CC[C@@H]1/C=C/COc2c(Cl)cccc2[C@H](c2ccccc2)N2CN1C(=O)c1c(O)c(=O)ccn12 (single isomer, unassigned) [Compound 98AB, (9*R,18*S,E)-4-chloro-9-ethyl-12-hydroxy-18-phenyl-6,9-dihydro-18H-10,17-methanobenzo[b]pyrido[1,2-f][1]oxa[5,6,9]triazacyclotridecine-11,13-dione] | 2.2 | > 200 |
| CC[C@H]1/C=C/COc2c(Cl)cccc2[C@@H](c2ccccc2)N2CN1C(=O)c1c(O)c(=O)ccn12 (single isomer, unassigned) [Compound 98BA, (9*S,18*R,E)-4-chloro-9-ethyl-12-hydroxy-18-phenyl-6,9-dihydro-18H-10,17-methanobenzo[b]pyrido[1,2-f][1]oxa[5,6,9]triazacyclotridecine-11,13-dione] | 830 | 26400 |
| CC[C@@H]1/C=C/COc2c(Cl)cccc2[C@@H](c2ccccc2)N2CN1C(=O)c1c(O)c(=O)ccn12 (single isomer, unassigned) [Compound 98BB, (9*R,18*R,E)-4-chloro-9-ethyl-12-hydroxy-18-phenyl-6,9-dihydro-18H-10,17-methanobenzo[b]pyrido[1,2-f][1]oxa[5,6,9]triazacyclotridecine-11,13-dione] | 2.1 | > 1000 |
| O=C1c2c(O)c(=O)ccn2N2CN1CCOCCOc1ccccc1[C@H]2c1ccccc1 (single isomer, unassigned) [Compound 99A, (2*R)-18-hydroxy-2-phenyl-9,12-dioxa-1,15,22-triazatetracyclo[13.7.1.03,8.017,22]tricosa-3,5,7,17,20-pentaene-16,19-dione] | > 500 | > 1000 |
| O=C1c2c(O)c(=O)ccn2N2CN1CCOCCOc1ccccc1[C@@H]2c1ccccc1 (single isomer, unassigned) [Compound 99B, (2*S)-18-hydroxy-2-phenyl-9,12-dioxa-1,15,22-triazatetracyclo[13.7.1.03,8.017,22]tricosa-3,5,7,17,20-pentaene-16,19-dione] | 167 | > 1000 |
| C[C@H]1C/C=C/COc2c(F)cccc2[C@@H](c2ccccc2)N2CN1C(=O)c1c(O)c(=O)ccn12 (single isomer, unassigned) [Compound 100AA, (2*R,9*S,*E)-33-fluoro-15-hydroxy-9-methyl-2-phenyl-12,13,14,16-tetrahydro-11H-4-oxa-1(1,3)-pyrido[2,1-f][1,2,4]triazina-3(1,2)-benzenacyclononaphan-6-ene-14,16-dione] | 1.7 | > 100 |
| C[C@@H]1C/C=C/COc2c(F)cccc2[C@@H](c2ccccc2)N2CN1C(=O)c1c(O)c(=O)ccn12 (single isomer, unassigned) [Compound 100AB, (2*R,9*R,*E)-33-fluoro-15-hydroxy-9-methyl-2-phenyl-12,13,14,16-tetrahydro-11H-4-oxa-1(1,3)-pyrido[2,1-f][1,2,4]triazina-3(1,2)-benzenacyclononaphan-6-ene-14,16-dione] | 2.1 | > 200 |
| C[C@H]1C/C=C/COc2c(F)cccc2[C@H](c2ccccc2)N2CN1C(=O)c1c(O)c(=O)ccn12 (single isomer, unassigned) [Compound 100BA, (2*S,9*S,*E)-33-fluoro-15-hydroxy-9-methyl-2-phenyl-12,13,14,16-tetrahydro-11H-4-oxa-1(1,3)-pyrido[2,1-f][1,2,4]triazina-3(1,2)-benzenacyclononaphan-6-ene-14,16-dione] | 5210 | 40200 |
| C[C@@H]1C/C=C/COc2c(F)cccc2[C@H](c2ccccc2)N2CN1C(=O)c1c(O)c(=O)ccn12 (single isomer, unassigned) [Compound 100BB, (2*S,9*R,*E)-33-fluoro-15-hydroxy-9-methyl-2-phenyl-12,13,14,16-tetrahydro-11H-4-oxa-1(1,3)-pyrido[2,1-f][1,2,4]triazina-3(1,2)-benzenacyclononaphan-6-ene-14,16-dione] | 1160 | 32500 |
| O=C1c2c(O)c(=O)ccn2N2CN1C/C=C\COc1c(ccc(Cl)c1Cl)[C@H]2c1ccccc1 (single isomer, unassigned) [Compound 103A, (18*R,Z)-3,4-dichloro-12-hydroxy-18-phenyl-6,9-dihydro-18H-10,17-methanobenzo[b]pyrido[1,2-f][1]oxa[5,6,9]triazacyclotridecine-11,13-dione] | > 100 | > 200 |
| O=C1c2c(O)c(=O)ccn2N2CN1C/C=C\COc1c(ccc(Cl)c1Cl)[C@@H]2c1ccccc1 (single isomer, unassigned) [Compound 103B, (18*S,Z)-3,4-dichloro-12-hydroxy-18-phenyl-6,9-dihydro-18H-10,17-methanobenzo[b]pyrido[1,2-f][1]oxa[5,6,9]triazacyclotridecine-11,13-dione] | 3.1 | > 200 |
| O=C1c2c(O)c(=O)ccn2N2CN1C/C=C\COc1c(F)cccc1[C@@H]2c1cccc(F)n1 (single isomer, unassigned) [Compound 104A, (18*R,*Z)-4-fluoro-18-(6-fluoropyridin-2-yl)-12-hydroxy-6,9-dihydro-18H-10,17-methanobenzo[b]pyrido[1,2-f][1]oxa[5,6,9]triazacyclotridecine-11,13-dione] | 10.7 | > 200 |
